{"source": "patent US11793823B2", "about": "“Compounds and pharmaceutical uses thereof” (SyneuRx International (Taiwan) Corp., priority 2020, dated 2023)", "key": {"[1]": {"target": "human D-amino acid oxidase (hDAAO) (Homo sapiens (Human), UniProt P14920)", "sequence (P14920 whole entry)": "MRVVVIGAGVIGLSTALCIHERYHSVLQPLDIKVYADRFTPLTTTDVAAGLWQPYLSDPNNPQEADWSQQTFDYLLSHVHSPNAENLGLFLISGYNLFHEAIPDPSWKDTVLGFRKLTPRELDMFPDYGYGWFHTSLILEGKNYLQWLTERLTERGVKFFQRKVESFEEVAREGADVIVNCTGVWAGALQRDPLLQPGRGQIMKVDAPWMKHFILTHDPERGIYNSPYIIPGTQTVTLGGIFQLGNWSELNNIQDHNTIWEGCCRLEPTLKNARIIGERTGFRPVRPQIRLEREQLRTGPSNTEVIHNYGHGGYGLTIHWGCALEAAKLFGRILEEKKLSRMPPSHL", "test": "In vitro human D-amino acid oxidase (hDAAO) activity, D-Serine/Amplex Red fluorescence", "type": "biochemical", "conditions": "D-Serine substrate, 20 min", "experimental": "The hDAAO inhibitory activities were measured by using D-Serine as a substrate to produce H2O2. The produced H2O2 would be oxidized by peroxidase, and the produced free radicals would further react with Amplex Red reagent to emit fluorescence. The intensity of fluorescence at 590 nm would be measured to represent the activity of hDAAO. All compounds were dissolved in DMSO. Each compound was diluted with DMSO in 3-fold serial dilution to create a dose response curve. Each sample was added in triplicate, 1 µL/well, into 96-well black plates. Positive control wells were added with 1 μL of DMSO. Then 49 μL of assay buffer (100 mM Tris-HCl, pH 8.5) containing 1.2 ng/mL hDAAO, 900 nM FAD, 0.2 units/mL HRP, and 100 μM Amplex Red was added to each well of the plate using a multichannel pipette. Next, 50 μL of 100 mM D-Serine in assay buffer was added. The reaction plates were then incubated in the dark at room temperature. The fluorescence readout was detected at 0 and 20 mins by Molecular Device Gemini EM fluorescence reader using the following settings: excitation filter 530 nm, and emission filter 590 nm. The percentage of inhibition values for each well was calculated with the following equation: The percentage of inhibition=(fluorescence sample, 20 min−fluorescence sample, 0 min)/(fluorescence DMSO, 20 min−fluorescence DMSO, 0 min)×100%\nThe nonlinear curve fitting model in GraphPad Prism was used to calculate IC50 value for each compound."}, "MK-801 treated mice [2]": {"system": "MK-801 treated mice", "test": "Open field test, MK-801 induced hyper-locomotion", "type": "in vivo", "conditions": "for effect on MK-801 induced hyper-locomotion vs MK-801 group: dose-dependent; for relief of MK801-induced hyperactivity: MK-801 0.2 mg/kg i.p., open field", "experimental": "(§1) C57BL/6J male mice were group housed (3-5 mice per cage) with food and water available ad libitum in polysulfone ventilated cages (Alternative Design, AR, USA) in the animal room of SyneuRx. The colony was maintained on a 12/12-h light/dark cycle at the temperature of 22±2° C. and all behavioral studies were performed during the dark cycle. All animals used in this study were adult mice (at least 2.5 months of age). All animal procedures were performed according to the protocols approved by Institutional Animal Care and Use Committee (IACUC).\n(§2) The mice were randomly assigned into five groups for open field test, Group 1: vehicle control, Group 2: MK-801, Group 3: Compound 66 at 10 mg/kg+MK-801, Group 4: Compound 66 at 30 mg/kg+MK-801, Group 5: Compound 66 at 100 mg/kg+MK-801. Mice at Group 2-5 received an acute administration of MK-801 (Sigma-Aldrich USA), a NMDA receptor antagonist, dissolved in normal saline, at 0.2 mg/kg for open field. For pre-pulse inhibition (PPI) test, animal was randomly assigned for four groups, Group 1: vehicle control, Group 2: MK-801, Group 3: Compound 66 at 3 mg/kg+MK-801, Group 4: Compound 66 at 10 mg/kg. Group 2-4 was received 0.3 mg/kg, MK-801. MK-801 was administrated by i.p. injection 20 minutes prior to open field and PPI tests. Test article, compound 66 (dissolved in ddH2O with 65% PEG400 and 10% DMSO), was orally treated 20 minutes prior to the MK-801 administration.\nThe open field task is a common measurement of novelty induced exploratory behavior and general activity in both mice and rats. The objective of this experiment was to evaluate the efficacy of compound 66 on attenuating the MK-801 induced hyper-locomotion. In this study, the mice were placed in a Plexiglas cage (37.5 cm×21.5 cm×18 cm) under 50-65 lux light intensity. Their spontaneous locomotor activities were measured for 60 minutes using the Photobeam Activity System (PAS)-open field (San Diego Instruments, San Diego, CA, USA). The total number of photo beam breaks of each mouse was measured as an index of locomotion activity.\nas §2, with “74” for “66”, “field test.” for “field.”\n(§3) All mice were tested with open field and pre-pulse inhibition tasks. The open field and pre-pulse inhibition tasks were used to evaluate the efficacy of the compound 74 on attenuating the MK-801 induced hyper-locomotion and deficit of sensorimotor gating function in mice, respectively. The apparatus and recording method of open field and pre-pulse inhibition task were as described above in Example 45.\nMice at Group 2-5 received an acute administration of MK-801 (Sigma-Aldrich USA), a NMDA receptor antagonist, dissolved in normal saline, at 0.2 mg/kg for open field test. […] Group […] was received 0.3 mg/kg, MK-801. MK-801 was administrated by i.p. injection 20 minutes prior to open field and PPI tests.\nThe open field task is a common measurement of novelty induced exploratory behavior and general activity in both mice and rats. […] In this study, the mice were placed in a Plexiglas cage (37.5 cm×21.5 cm×18 cm) under 50-65 lux light intensity. […]"}, "MK-801 treated mice [3]": {"system": "MK-801 treated mice", "test": "Pre-pulse inhibition (PPI) test, MK-801 induced deficit of sensorimotor gating", "type": "in vivo", "conditions": "MK-801 0.3 mg/kg i.p.", "experimental": "as §1, §2\nPre-pulse inhibition, using SR-LAB startle apparatus (San Diego Instruments, San Diego, CA, USA), was used to determine the efficacy of compound 66 on attenuating the MK-801 induced deficit of sensorimotor gating function in mice. Under 65 dB background noise, each session was composed of a 5-minute accumulation period followed by 64 trials in four blocks. The pulse alone (PA) trial was a 40 ms, 120 dB white noise burst. In the prepulse (pp)+pulse trials, a 20 ms white noise prepulse stimuli of 71 dB (pp6), 75 dB (pp10), and 83 dB (pp18) were presented 100 ms before a 40 ms 120 dB pulse. The non-stimulus (NS) trials presented the background noise only. The initial and the last blocks were composed of six PA trials, respectively. Two middle blocks consisted of PA, pp+pulse, and NS trials. These trials were presented pseudo-randomly and separated by intertribal intervals of 15 seconds on average (varying between 10 to 20 s). The percentage of prepulse inhibition was evaluated by the following formula: % PPI=100×[(PA score)−(pp-P score)]/(PA score), where the PA score was the average of the PA value in the middle blocks.\nas §2, with “74” for “66”, “field test.” for “field.”\nas §3, with “45. […]” for “45.”"}, "SARS-CoV-2 3CLPro": {"target": "SARS-CoV-2 3CLPro (Severe acute respiratory syndrome coronavirus 2 (2019-nCoV) (SARS-CoV-2), UniProt P0DTD1)", "test": "biochemical"}, "[4]": {"conditions": "75 dB and 83 dB pre-pulse, 3 mg/kg oral"}, "[5]": {"conditions": "final DMSO concentration 2%, read-out: IC50"}, "[6]": {"conditions": "final DMSO concentration 2%, read-out: IC50 (μg/mL) (converted)"}}, "note": "Read-outs that look alike come from different tables or passages of the source."}
{"smiles": "O=C(OC[C@H]1O[C@H](OC(=O)c2cc(O)c(O)c(OC(=O)c3cc(O)c(O)c(OC(=O)c4cc(O)c(O)c(OC(=O)c5cc(O)c(O)c(O)c5)c4)c3)c2)[C@H](OC(=O)c2cc(O)c(O)c(OC(=O)c3cc(O)c(O)c(OC(=O)c4cc(O)c(O)c(OC(=O)c5cc(O)c(O)c(O)c5)c4)c3)c2)[C@@H]1OC(=O)c1cc(O)c(O)c(OC(=O)c2cc(O)c(O)c(OC(=O)c3cc(O)c(O)c(OC(=O)c4cc(O)c(O)c(O)c4)c3)c2)c1)c1cc(O)c(O)c(OC(=O)c2cc(O)c(O)c(OC(=O)c3cc(O)c(O)c(OC(=O)c4cc(O)c(O)c(O)c4)c3)c2)c1", "note": "[Compound 138, (2R,3R,4R,5R)-5-(((3-((3-((3,4-dihydroxy-5-((3,4,5-trihydroxybenzoyl)oxy)benzoyl)oxy)-4,5-dihydroxybenzoyl)oxy)-4,5-dihydroxybenzoyl)oxy)methyl)tetrahydrofuran-2,3,4-triyl tris(3-((3-((3,4-dihydroxy-5-((3,4,5-trihydroxybenzoyl)oxy)benzoyl)oxy)-4,5-dihydroxybenzoyl)oxy)-4,5-dihydroxybenzoate)]", "values": [{"measurement": "IC50", "setting": "[1]", "value": 0.004, "unit": "µM"}, {"measurement": "effect on MK-801 induced hyper-locomotion vs MK-801 group", "setting": "MK-801 treated mice [2]; 3, 10 and 30 mg/kg oral", "value": "significantly reduced"}, {"measurement": "relief of MK801-induced hyperactivity", "setting": "MK-801 treated mice [2]; high dose 30 mg/kg oral", "value": 43, "unit": "%"}, {"measurement": "effect on pre-pulse inhibition vs MK-801 group", "setting": "MK-801 treated mice [3]; [4]", "value": "relieve PPI deficit"}]}
{"smiles": "O=C(O)c1cc(O)c(O)c(OC(=O)c2cc(O)c(O)c(OC(=O)c3cc(O)c(O)c(OC(=O)c4cc(O)c(O)c(OC(=O)c5cc(O)c(O)c(OC(=O)c6ccccc6)c5)c4)c3)c2)c1", "note": "[Compound 77, 3-((3-((3-((3-((3-(benzoyloxy)-4,5-dihydroxybenzoyl)oxy)-4,5-dihydroxybenzoyl)oxy)-4,5-dihydroxybenzoyl)oxy)-4,5-dihydroxybenzoyl)oxy)-4,5-dihydroxybenzoic acid]", "values": [{"measurement": "IC50", "setting": "[1]", "value": 0.072, "unit": "µM"}, {"measurement": "IC50", "setting": "SARS-CoV-2 3CLPro; final DMSO concentration 0.4%, read-out: IC50", "value": 4.33, "unit": "µM"}, {"measurement": "IC50", "setting": "SARS-CoV-2 3CLPro; final DMSO concentration 0.4%, read-out: IC50 (μg/mL) (converted)", "value": 4.33, "unit": "µM"}]}
{"smiles": "O=C(CC1CCCCC1)Oc1cc(C(=O)Oc2cc(C(=O)Oc3cc(C(=O)Oc4cc(C(=O)Oc5cc(C(=O)O)cc(O)c5O)cc(O)c4O)cc(O)c3O)cc(O)c2O)cc(O)c1O", "note": "[Compound 80, 3-((3-((3-((3-((3-(2-cyclohexylacetoxy)-4,5-dihydroxybenzoyl)oxy)-4,5-dihydroxybenzoyl)oxy)-4,5-dihydroxybenzoyl)oxy)-4,5-dihydroxybenzoyl)oxy)-4,5-dihydroxybenzoic acid]", "values": [{"measurement": "IC50", "setting": "[1]", "value": 0.058, "unit": "µM"}, {"measurement": "IC50", "setting": "SARS-CoV-2 3CLPro; [5]", "value": "> 62.5", "unit": "µM"}, {"measurement": "IC50", "setting": "SARS-CoV-2 3CLPro; [6]", "value": "> 62.5", "unit": "µM"}]}
{"smiles": "O=C(Oc1ccccc1)c1cc(O)c(O)c(OC(=O)c2cc(O)c(O)c(OC(=O)c3cc(O)c(O)c(OC(=O)c4cc(O)c(O)c(OC(=O)c5cc(O)c(O)c(OC(=O)c6ccccc6)c5)c4)c3)c2)c1", "note": "[Compound 85, 5-((5-((5-((2,3-dihydroxy-5-(phenoxycarbonyl)phenoxy)carbonyl)-2,3-dihydroxyphenoxy)carbonyl)-2,3-dihydroxyphenoxy)carbonyl)-2,3-dihydroxyphenyl 3-(benzoyloxy)-4,5-dihydroxybenzoate]", "values": [{"measurement": "IC50", "setting": "[1]", "value": 0.031, "unit": "µM"}, {"measurement": "IC50", "setting": "SARS-CoV-2 3CLPro; [5]", "value": 2.37, "unit": "µM"}, {"measurement": "IC50", "setting": "SARS-CoV-2 3CLPro; [6]", "value": 2.37, "unit": "µM"}]}
{"smiles": "O=C(OCc1cc(CCc2ccc(F)cc2)n[nH]1)c1cc(O)c(O)c(OC(=O)c2cc(O)c(O)c(OC(=O)c3cc(O)c(O)c(OC(=O)c4cc(O)c(O)c(OC(=O)c5cc(O)c(O)c(O)c5)c4)c3)c2)c1", "note": "[Compound 92, 5-((5-((5-((5-(((3-(4-fluorophenethyl)-1H-pyrazol-5-yl)methoxy)carbonyl)-2,3-dihydroxyphenoxy)carbonyl)-2,3-dihydroxyphenoxy)carbonyl)-2,3-dihydroxyphenoxy)carbonyl)-2,3-dihydroxyphenyl 3,4,5-trihydroxybenzoate]", "values": [{"measurement": "IC50", "setting": "[1]", "value": 0.023, "unit": "µM"}, {"measurement": "IC50", "setting": "SARS-CoV-2 3CLPro; [5]", "value": 2.42, "unit": "µM"}, {"measurement": "IC50", "setting": "SARS-CoV-2 3CLPro; [6]", "value": 2.42, "unit": "µM"}]}
{"smiles": "O=C(O)c1cc(O)c(O)c(OC(=O)c2cc(O)c(O)c(OC(=O)c3cc(O)c(O)c(OC(=O)c4cc(O)c(O)c(OC(=O)c5cc(O)c(O)c(OC(=O)c6cc(CCc7ccc(C(F)(F)F)cc7)n[nH]6)c5)c4)c3)c2)c1", "note": "[Compound 66, 3-((3-((3-((3-((3,4-dihydroxy-5-((3-(4-(trifluoromethyl)phenethyl)-1H-pyrazole-5-carbonyl)oxy)benzoyl)oxy)-4,5-dihydroxybenzoyl)oxy)-4,5-dihydroxybenzoyl)oxy)-4,5-dihydroxybenzoyl)oxy)-4,5-dihydroxybenzoic acid]", "values": [{"measurement": "IC50", "setting": "[1]", "value": 0.025, "unit": "µM"}, {"measurement": "effect on MK-801 induced hyper-locomotion vs MK-801 group", "setting": "MK-801 treated mice [2]; 10, 30 and 100 mg/kg oral", "value": "significantly reduced"}, {"measurement": "relief of MK801-induced hyperactivity", "setting": "MK-801 treated mice [2]; high dose 100 mg/kg oral", "value": 67, "unit": "%"}, {"measurement": "effect on pre-pulse inhibition vs MK-801 group", "setting": "MK-801 treated mice [3]; 71 dB pre-pulse, 10 mg/kg oral", "value": "relieve PPI deficit to basal level"}, {"measurement": "effect on pre-pulse inhibition vs MK-801 group", "setting": "MK-801 treated mice [3]; [4]", "value": "marginal improvement"}, {"measurement": "effect on pre-pulse inhibition vs MK-801 group", "setting": "MK-801 treated mice [3]; 75 dB and 83 dB pre-pulse, 10 mg/kg oral", "value": "significantly higher percentage of pre-pulse inhibition"}]}
